Activity calls are given as the source filed them. The rule behind the calls is not given here.
Columns and labels:
Escherichia coli [1] = assay: Synergistic antibacterial activity against Escherichia coli BL21 (DE3) harboring NDM-1 assessed as meropenem MIC at 64 microg/ml measured after 16 hrs by CLSI protocol based broth microdilution method (reference value: 256 microg/ml); format: functional; conditions: dose 64 µg/ml
Escherichia coli [2] = assay: Synergistic antibacterial activity against Escherichia coli BL21 (DE3) harboring NDM-1 assessed as fold decrease in meropenem MIC at 64 microg/ml measured after 16 hrs by CLSI protocol based broth microdilution method; format: functional; conditions: dose 64 µg/ml
Escherichia coli [3] = assay: Synergistic antibacterial activity against Escherichia coli BL21 (DE3) harboring metallo-beta-lactamase IMP-1 assessed as meropenem MIC at 64 microg/ml measured after 16 hrs by CLSI protocol based broth microdilution method (reference value: 64 microg/ml); format: functional; conditions: dose 64 µg/ml
Escherichia coli [4] = assay: Synergistic antibacterial activity against Escherichia coli BL21 (DE3) harboring serine beta lactamase KPC-2 assessed as meropenem MIC at 64 microg/ml measured after 16 hrs by CLSI protocol based broth microdilution method (reference value: 16 microg/ml); format: functional; conditions: dose 64 µg/ml
Bacteria [5] = assay: Inhibition of recombinant serine beta lactamase OXA-48 (unknown origin) expressed in Escherichia coli BL21 (DE3) cells using meropenem as substrate at 20 uM by spectrometric analysis relative to control
[6] = biological target: Metallo-beta-lactamase type 2 (Bacteria, UniProt C7C422); assay: Inhibition of recombinant NDM-1 (unknown origin) expressed in Escherichia coli BL21 (DE3) cells using meropenem as substrate by spectrometric analysis
Sequence of Metallo-beta-lactamase type 2 (C7C422 whole entry): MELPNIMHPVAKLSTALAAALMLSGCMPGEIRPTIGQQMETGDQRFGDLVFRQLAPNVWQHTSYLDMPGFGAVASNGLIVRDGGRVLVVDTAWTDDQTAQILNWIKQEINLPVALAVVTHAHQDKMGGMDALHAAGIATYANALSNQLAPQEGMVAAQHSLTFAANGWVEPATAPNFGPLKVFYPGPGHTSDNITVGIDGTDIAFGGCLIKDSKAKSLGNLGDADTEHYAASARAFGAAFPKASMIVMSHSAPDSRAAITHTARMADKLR

Bacteria [7] = assay: Inhibition of recombinant serine beta lactamase KPC-2 (unknown origin) expressed in Escherichia coli BL21 (DE3) cells using meropenem as substrate at 20 uM by spectrometric analysis relative to control
Escherichia coli [8] = assay: Synergistic antibacterial activity against Escherichia coli BL21 (DE3) harboring metallo-beta lactamase IMP-1 assessed as fold decrease in meropenem MIC at 64 microg/ml measured after 16 hrs by CLSI protocol based broth microdilution method; format: functional; conditions: dose 64 µg/ml
Escherichia coli [9] = assay: Synergistic antibacterial activity against Escherichia coli BL21 (DE3) harboring serine beta lactamase OXA-48 assessed as meropenem MIC at 64 microg/ml measured after 16 hrs by CLSI protocol based broth microdilution method (reference value: 1 microg/ml); format: functional; conditions: dose 64 µg/ml
Escherichia coli [10] = assay: Synergistic antibacterial activity against Escherichia coli BL21 (DE3) harboring serine beta lactamase OXA-48 assessed as fold decrease in meropenem MIC at 64 microg/ml measured after 16 hrs by CLSI protocol based broth microdilution method; format: functional; conditions: dose 64 µg/ml
[11] = Inhibition of recombinant serine beta lactamase KPC-2 (unknown origin) expressed in Escherichia coli BL21 (DE3) cells using meropenem as substrate by spectrometric analysis; design: species or system Bacteria
[12] = Inhibition of recombinant serine beta lactamase OXA-48 (unknown origin) expressed in Escherichia coli BL21 (DE3) cells using meropenem as substrate by spectrometric analysis; design: species or system Bacteria
[13] = Inhibition of recombinant metallo-beta-lactamase IMP-1 (unknown origin) expressed in Escherichia coli BL21 (DE3) cells using meropenem as substrate by spectrometric analysis; design: species or system Bacteria
Bacteria [14] = assay: Inhibition of recombinant metallo-beta-lactamase L-1 (unknown origin) expressed in Escherichia coli BL21 (DE3) cells using cefazolin as substrate at 20 uM by spectrometric analysis relative to control
Bacteria [15] = assay: Inhibition of recombinant metallo-beta-lactamase ImiS (unknown origin) expressed in Escherichia coli BL21 (DE3) cells using meropenem as substrate at 20 uM by spectrometric analysis relative to control
[16] = biological target: Metallo-beta-lactamase type 2 (Bacteria) (UniProt C7C422); assay: Inhibition of recombinant NDM-1 (unknown origin) expressed in Escherichia coli BL21 (DE3) cells using meropenem as substrate at 20 uM by spectrometric analysis relative to control
Sequence of Metallo-beta-lactamase type 2 (Bacteria) (C7C422 whole entry): as above

Escherichia coli [17] = assay: Synergistic antibacterial activity against Escherichia coli BL21 (DE3) harboring serine beta lactamase KPC-2 assessed as fold decrease in meropenem MIC at 64 microg/ml measured after 16 hrs by CLSI protocol based broth microdilution method; format: functional; conditions: dose 64 µg/ml
Bacteria [18] = assay: Inhibition of recombinant metallo-beta-lactamase IMP-1 (unknown origin) expressed in Escherichia coli BL21 (DE3) cells using cefazolin as substrate at 20 uM by spectrometric analysis relative to control
Escherichia coli [19] = assay: Synergistic antibacterial activity against Escherichia coli BL21 (DE3) harboring serine beta lactamase OXA-48 assessed as decrease in bacterial colony at 128 microg/ml incubated for 12 hrs in presence of meropenem by imaging analysis; format: functional, organism-based; conditions: dose 128.0 µg/ml
Escherichia coli [20] = assay: Antibacterial activity against Escherichia coli harboring serine beta-lactamase OXA-48 infected in Kunming mouse model assessed as reduction in bacterial load in spleen at 20 mg/kg, ip; format: functional, organism-based
Escherichia coli [21] = assay: Synergistic antibacterial activity against Escherichia coli harboring serine beta-lactamase OXA-48 infected in Kunming mouse model assessed as reduction in bacterial load in liver at 20 mg/kg, ip co-administered with 1 mg/kg of meropenem; format: functional, organism-based
Escherichia coli [22] = assay: Antibacterial activity against Escherichia coli harboring serine beta-lactamase OXA-48 infected in Kunming mouse model assessed as reduction in bacterial load in liver at 20 mg/kg, ip; format: functional, organism-based
[23] = Cytotoxicity against mouse L929 cells assessed as cell viability upto 200 uM incubated for 48 hrs by CCK8 assay relative to control; format: toxicity, cell-based; conditions: read-out: Activity
Escherichia coli [24] = assay: Synergistic antibacterial activity against Escherichia coli BL21 (DE3) harboring NDM-1 assessed as decrease in bacterial colony at 128 microg/ml incubated for 12 hrs in presence of meropenem by imaging analysis; format: functional, organism-based; conditions: dose 128.0 µg/ml
Escherichia coli [25] = assay: Synergistic antibacterial activity against Escherichia coli BL21 (DE3) harboring serine beta lactamase KPC-2 assessed as decrease in bacterial colony at 128 microg/ml incubated for 12 hrs in presence of meropenem by imaging analysis; format: functional, organism-based; conditions: dose 128.0 µg/ml
Escherichia coli [26] = assay: Synergistic antibacterial activity against Escherichia coli clinical isolate 10 assessed as decrease in bacterial colony at 128 microg/ml incubated for 12 hrs in presence of meropenem by imaging analysis; format: functional, organism-based; conditions: dose 128.0 µg/ml
Escherichia coli [27] = assay: Synergistic antibacterial activity against Escherichia coli BL21 (DE3) harboring metallo-beta-lactamase IMP-1 assessed as decrease in bacterial colony at 128 microg/ml incubated for 12 hrs in presence of meropenem by imaging analysis; format: functional, organism-based; conditions: dose 128.0 µg/ml

For `O=C(CCC1CCCCC1)NOC(=O)OCc1ccccc1`, the MIC (Escherichia coli [1]) was 64 µg/mL, the “fold change (FC)” value (Escherichia coli [2]) was 2 and the MIC (Escherichia coli [3]) was 32 µg/mL. The MIC (Escherichia coli [4]) was 16 µg/mL, the inhibition (Bacteria [5]) was > 90% and the IC50 [6] was 1270 nM. For the same compound, the inhibition (Bacteria [7]) was > 90%, the “fold change (FC)” value (Escherichia coli [8]) was 2 and the MIC (Escherichia coli [9]) was 0.5 µg/mL. The “fold change (FC)” value (Escherichia coli [10]) was 2, the IC50 [11] was 600 nM and the IC50 [12] was 1990 nM. The IC50 [13] was 6480 nM.
In the case of `CCOC(=O)ONC(=O)CCCc1ccccc1`, the MIC (Escherichia coli [1]) is reported as 64 µg/mL, the “fold change (FC)” value (Escherichia coli [2]) is reported as 2 and the inhibition (Bacteria [14]) is reported as < 42%. For the same compound, the inhibition (Bacteria [15]) was < 42%, the MIC (Escherichia coli [3]) was 16 µg/mL and the MIC (Escherichia coli [4]) was 4 µg/mL. The inhibition (Bacteria [5]) was > 90%, the IC50 [6] was 990 nM and the inhibition (Bacteria [7]) was > 90%. The inhibition [16] was > 90%, the “fold change (FC)” value (Escherichia coli [8]) was 2 and the “fold change (FC)” value (Escherichia coli [17]) was 2. The inhibition (Bacteria [18]) was > 90%, the MIC (Escherichia coli [9]) was 0.5 µg/mL and the “fold change (FC)” value (Escherichia coli [10]) was 2. The IC50 [11] was 980 nM, the IC50 [12] was 2880 nM and the IC50 [13] was 2890 nM.
In the case of `CC(C)COC(=O)ONC(=O)CCC1CCCCC1`, the Activity (Escherichia coli [19]) is reported as “Active”, the MIC (Escherichia coli [1]) is reported as 64 µg/mL and the “fold change (FC)” value (Escherichia coli [2]) is reported as 2. For the same compound, the MIC (Escherichia coli [3]) was 32 µg/mL, the MIC (Escherichia coli [4]) was 16 µg/mL and the inhibition (Bacteria [5]) was > 90%. For the same compound, the IC50 [6] was 4730 nM, the Activity (Escherichia coli [20]) was “inactive” and the Activity (Escherichia coli [21]) was “Active”. For the same compound, the inhibition (Bacteria [7]) was > 90%, the Activity (Escherichia coli [22]) was “inactive” and the viability at 48 h, up to 200 µM [23] was > 80%. For the same compound, the “fold change (FC)” value (Escherichia coli [8]) was 2, the MIC (Escherichia coli [9]) was 0.063 µg/mL and the Activity (Escherichia coli [24]) was “Active”. The Activity (Escherichia coli [25]) was “Active”, the “fold change (FC)” value (Escherichia coli [10]) was 16 and the IC50 [11] was 690 nM. For the same compound, the IC50 [12] was 2050 nM, the Activity (Escherichia coli [26]) was “Active” and the Activity (Escherichia coli [27]) was “Active”. It also gave an IC50 [13] of 4490 nM.
For `CCCCCOC(=O)ONC(=O)CCCc1ccccc1`, the MIC (Escherichia coli [1]) was 64 µg/mL, the “fold change (FC)” value (Escherichia coli [2]) was 2 and the inhibition (Bacteria [14]) was < 42%. For the same compound, the inhibition (Bacteria [15]) was < 42%, the MIC (Escherichia coli [3]) was 16 µg/mL and the MIC (Escherichia coli [4]) was 8 µg/mL. For the same compound, the inhibition (Bacteria [5]) was > 90%, the IC50 [6] was 1870 nM and the inhibition (Bacteria [7]) was > 90%. For the same compound, the inhibition [16] was > 90%, the “fold change (FC)” value (Escherichia coli [8]) was 2 and the “fold change (FC)” value (Escherichia coli [17]) was 2. For the same compound, the inhibition (Bacteria [18]) was > 90%, the MIC (Escherichia coli [9]) was 0.5 µg/mL and the “fold change (FC)” value (Escherichia coli [10]) was 2. It also gave an IC50 [11] of 1470 nM, an IC50 [12] of 1030 nM and an IC50 [13] of 850 nM.
For `CCOC(=O)ONC(=O)CCC1CCCCC1`, the MIC (Escherichia coli [1]) was 64 µg/mL, the “fold change (FC)” value (Escherichia coli [2]) was 2 and the MIC (Escherichia coli [3]) was 32 µg/mL. For the same compound, the MIC (Escherichia coli [4]) was 16 µg/mL, the inhibition (Bacteria [5]) was > 90% and the IC50 [6] was 3270 nM. For the same compound, the inhibition (Bacteria [7]) was > 90%, the “fold change (FC)” value (Escherichia coli [8]) was 2 and the MIC (Escherichia coli [9]) was 0.063 µg/mL. For the same compound, the “fold change (FC)” value (Escherichia coli [10]) was 16, the IC50 [11] was 1290 nM and the IC50 [12] was 3450 nM. It also gave an IC50 [13] of 3030 nM.
With `CC(C)COC(=O)ONC(=O)CCCc1ccccc1` the MIC (Escherichia coli [1]) was 64 µg/mL, the “fold change (FC)” value (Escherichia coli [2]) was 2 and the inhibition (Bacteria [14]) was < 42%. For the same compound, the inhibition (Bacteria [15]) was < 42%, the MIC (Escherichia coli [3]) was 32 µg/mL and the MIC (Escherichia coli [4]) was 8 µg/mL. For the same compound, the inhibition (Bacteria [5]) was > 90%, the IC50 [6] was 1870 nM and the inhibition (Bacteria [7]) was > 90%. For the same compound, the inhibition [16] was > 90%, the “fold change (FC)” value (Escherichia coli [8]) was 2 and the “fold change (FC)” value (Escherichia coli [17]) was 2. For the same compound, the inhibition (Bacteria [18]) was > 90%, the MIC (Escherichia coli [9]) was 0.5 µg/mL and the “fold change (FC)” value (Escherichia coli [10]) was 2. The IC50 [11] was 1470 nM, the IC50 [12] was 1030 nM and the IC50 [13] was 850 nM.
